The conditions of experiment [1]: animal tests, literature report; cited from earlier work.
Experiment [2] deals with male rats, retrograde amnesia under hypoxia. Nature of the experiment: Retrograde amnesia (rat) under hypoxic conditions. The experiment is classed as in vivo. The settings on record: 100 mg/kg p.o., hypoxia 3.8% oxygen, 15 animals per group. The method, then:
The apparatus (39 cm long, 21 cm high, and 21 cm wide) consists of two compartments, one made of translucent plastic (29 cm long) and the other one painted black (10 cm long) It has a bottom of spaced metal grids which are connected to a stimulating device delivered 1.6 mA for 20 s.
Both compartments are connected via a door which can be closed.
Male rats (100-120 g body weight) will be placed individually in the large compartment and allowed to explore both compartments for 3 min.
Thereafter the animals are placed in the small (dark) compartment, the connecting door is closed and the foot shock is delivered. After that the animals are put in an air-tight cage which is prefused by a gas mixture containing 3.8% oxygen and 96.2% nitrogen.
24 hours later the rats are placed again in the bright compartment. The observation time is 3 min.
One experiment is performed in three groups of 15 animals each:
Group A: control group, not exposed to hypoxia
Group B: control group, receiving hypoxia after first training
Group C: treated animals, receiving hypoxia after first training.
Evaluation: the times the animals need to enter the dark compartment are measured in seconds. […]
The time difference between the control group B and the treated group C is calculated in percent (C-B=X%). X is considered to be measured for the potency of the antiamnestic effect of the substance tested.

Experiment [3] relates to CCl4 intoxicated mice (SGPT). Briefly: Hepatoprotective action: SGPT of CCl4 intoxicated mice. The experiment is classed as in vivo, mouse (male Kunming strain). The conditions noted are these: 250 mg/kg × 2 orally at 8 h interval, 0.1% CCl4 10 ml/kg injected 24 h after second dose, 9 mice per group; P <0.01; control 1678 + 261. The method, then:
Male Kunming strain mice weighing 18-22 grams were used throughout the experiments. The compounds to be tested were suspended in 5% Tween 80 and given orally by gavage. The vehicle of 5% Tween 80 solution was administered to control mice via the same route. In in vitro experiments, the compounds were dissolved in dimethylformamide and added directly into the incubation mixture.
Mice were divided into several groups. The control group was administered the vehicle. The other groups were given two doses (250 mg/kg) of the compound at an interval of 8 h, respectively. 10 ml/kg of 0.1% CCl4 in vegetable oil was injected in 24 h after the second administration of the compound. The mice were fasted for 16 h and sacrificed by decapitation. SGPT and liver lipids were determined. A piece of liver was processed into sections for pathological observation.

Consider `C=CC(C)(C)c1cc2cc3c(cc2oc1=O)OC1(C)CCC(C(C)(C)O)OC1C3` (stereo not drawn) [Clausmarin A], for which the spasmolytic activity entry in experiment [1] is “showed spasmolytic activity”. Consider `CN1C=C(c2ccccc2)C(c2ccccc2)C(O)C1=O` (stereo not drawn) [Example 1], for which the “X (antiamnestic effect, C-B in percent of A-B)” value in experiment [2] worked out at 11%. The “SGPT units % X ± SE” value in experiment [3] was 739 + 196 units %.

Values taken from patent US4927937A, “Pharmacologically active ε-valerolactams” (Chinese Academy of Medical Science, priority 1986, dated 1990).
